From patent US10045978B2 (AB SCIENCE, priority 2010, dated 2018)

Tested on: patients with indolent forms of mastocytosis with handicap, D816V absent in at least one infiltrated organ
Test: Example 1 phase 2a study, response assessment
Assay type: in vivo, human
Parameters: Hamilton rating Δ Mean ± SD / QLQ-C30 Symptom Δ Mean ± SD / QLQ-C30 Global Health Δ Mean ± SD / AFIRMM Δ Mean ± SD / Hamilton rating ΔMean ± SD / QLQC30 Symptom ΔMean ± SD / QLQC30 Global Health ΔMean ± SD / AFIRMM ΔMean ± SD: scale not given here
Description: Eligible patients were aged >18 years, had previously documented indolent systemic, smoldering systemic or cutaneous mastocytosis as per the WHO classification with associated disability as the result of mast cell released mediators and had not responded to usual symptomatic treatments for more the 6 months. […] A single occurrence of this criterion was deemed sufficient for inclusion and so no systematic examination of multiple organs was carried out specifically for this study.
Patients were classified as having a handicap if after appropriate symptomatic treatments they fulfilled at least one of the following a priori criteria: number of flushes/day ≥1; pruritus score ≥6; number of stools ≥4/day; micturition frequency ≥8/day; Hamilton rating for depression ≥10; or EORTC quality-of-life questionnaire (QLQ-C30) symptom score, functional score, and global health status of >0. Patients were excluded if they experienced inadequate organ function defined via blood test levels, or an Eastern Cooperative Oncology Group performance status >2. Other exclusion criteria included: life expectancy <6 months, severe or uncontrolled medical disease, and patients who were pregnant or nursing.
In accordance to the AFIRMM study (Hermine O, et al., 2008, PLoS ONE. 3:e2266), evaluation of treatment response was based upon the change of clinical symptoms associated with a patient's handicaps at week 12 (W12) relative to baseline. Primary endpoints were daily frequency of flushes; pruritus score; and Hamilton rating for depression, as well as, daily stool and micturition frequencies; QLQ-C30 global health status, functional, and symptom scores. […] For those patients entering the extension phase, assessments were performed every 4 weeks for the first 3 months of extension, and every 12 weeks thereafter. Secondary endpoints included the W12 assessment of AFIRMM score (a validated questionnaire assessing the self-perceived severity of mastocytosis) (Hermine O, et al., 2008, PLoS ONE. 3:e2266); overall patient assessment (OPA) score; tryptase levels; and change in organ mast cell infiltration. Determination of D816V mutation and serum tryptase levels was conducted following procedures described previously (Hermine O, et al., 2008, PLoS ONE. 3:e2266). Overall clinical response analysis at W12 defined a responder as having an improvement of ≥50% in baseline handicap of a key response endpoint (Hamilton rating, flushes, or pruritus) without deterioration or emergence of handicap. Any patient with deterioration of ≥50% in any handicap, and/or with emergence of a new handicap with an increase of ≥50% from baseline was considered as worsening. Any patient who discontinued the study before W12 was considered a non responder. Discrimination between dose regimens was investigated by analyses of the ‘time to first response’, according to the initial dosage, and ‘dose at time of first response’ in key response endpoints.
Response analysis was performed on subgroups of the ITT population according to a patient's handicap at baseline and for whom response was evaluated at W12; referred to hereafter as the handicap-related population. No data imputation was implemented. The per protocol (PP) population was defined as a subset of a given handicap-related population, which in addition had presented no major protocol deviations. Summary response data are presented using descriptive statistics with mean improvement compared to baseline in each handicap cohort, regardless of disease classification. The appropriate Wilcoxon or Fisher tests were used for group comparison of baseline disease, demographic characteristics between dose level groups and response relative to baseline. Subpopulation analysis was also conducted according to initial c-Kit status.

[1] = W12, Group 1 (no confirmed D816V)
[2] = W12, Group 2 (mixed c-Kit status)
[3] = W12, handicap-related population

With `Cc1ccc(NC(=O)c2ccc(CN3CCN(C)CC3)cc2)cc1Nc1nc(-c2cccnc2)cs1` [masitinib, 4-(4-methylpiperazin-1-ylmethyl)-N-[4-methyl-3-(4-pyridin-3ylthiazol-2-ylamino)phenyl]benzamide] the “skin mast cell infiltration: good partial response (≥50% reduction)” value (1/14 evaluable patients) was 7%, the “OPA: worsening of health status” value (1/20 patient at one time point) was 5% and the “skin mast cell infiltration: partial response (1 to 49% reduction)” value (6/14 evaluable patients) was 43%. For the same compound, the “skin mast cell infiltration: no change” value (7/14 evaluable patients) was 50%, the “OPA score improvement of at least one point” value (9/20 patients) was 45% and the “first response events at lower dose level of 4.5 mg/kg/day” value (48/79 events) was 60%. The “first response events occurring at dose ≤6 mg/kg/day” value (76/79 events) was 96%, the “first response events: AFIRMM score” value (Total, all doses) was 10 and the “first response events: Flush” value (Total, all doses) was 17. For the same compound, the “first response events: Hamilton” value (Total, all doses) was 10, the “first response events: Micturition” value (Total, all doses) was 1 and the “first response events: OPA score” value (Total, all doses) was 7. For the same compound, the “first response events: Pruritus” value (Total, all doses) was 11, the “first response events: QLQ30 Functional” value (Total, all doses) was 5 and the “first response events: QLQ30 Global” value (Total, all doses) was 6. The “first response events: QLQ30 Symptom” value (Total, all doses) was 5, the “first response events: Stool” value (Total, all doses) was 7 and the “first response events: Total events” value (Total, all doses) was 79. The “QLQ-C30 functional score improvement” value (W12) was 39%±81, the “QLQ-C30 global health status improvement” value (W12) was 51%±108 and the “QLQ-C30 symptom score improvement” value (W12) was 2.5%±69. For the same compound, the “clinical response rate: Hamilton rating” value (W12) was 50%, the “clinical response rate: flushes” value (W12) was 60% and the “clinical response rate: pruritus” value (W12) was 25%. For the same compound, the “OPA: impaired health status at baseline reporting none or minimal impairment” value (W12, 3/20 evaluable patients) was 15%, the “AFIRMM Δ Mean ± SD” value (W12, All) was −61.5 ± 49.6 and the “Flushes per day Δ Mean ± SD” value (W12, All) was −1.7 ± 1.5. For the same compound, the “Hamilton rating Δ Mean ± SD” value (W12, All) was −5.1 ± 4.4, the “Micturitions per day Δ Mean ± SD” value (W12, All) was −3.1 ± 3.7 and the “Pruritus Δ Mean ± SD” value (W12, All) was −3.0 ± 3.4. The “QLQ-C30 Functional Δ Mean ± SD” value (W12, All) was 8.7 ± 18.8, the “QLQ-C30 Global Health Δ Mean ± SD” value (W12, All) was 12.5 ± 24.7 and the “QLQ-C30 Symptom Δ Mean ± SD” value (W12, All) was −6.1 ± 13.6. For the same compound, the “Stools per day Δ Mean ± SD” value (W12, All) was −1.9 ± 3.6, the “AFIRMM Δ Mean ± SD” value [1] was −63.5 ± 52.9 and the “Flushes per day Δ Mean ± SD” value [1] was −2.0 ± 1.6. The “Hamilton rating Δ Mean ± SD” value [1] was −4.6 ± 4.3, the “Micturitions per day Δ Mean ± SD” value [1] was −3.0 ± 2.8 and the “Pruritus Δ Mean ± SD” value [1] was −3.5 ± 3.6. The “QLQ-C30 Functional Δ Mean ± SD” value [1] was 8.7 ± 21.0, the “QLQ-C30 Global Health Δ Mean ± SD” value [1] was 14.1 ± 27.0 and the “QLQ-C30 Symptom Δ Mean ± SD” value [1] was −5.4 ± 14.7. For the same compound, the “Stools per day Δ Mean ± SD” value [1] was −2.0 ± 4.0, the “AFIRMM Δ Mean ± SD” value [2] was −53.5 ± 38.5 and the “Flushes per day Δ Mean ± SD” value [2] was −0.8 ± 0.5. The “Hamilton rating Δ Mean ± SD” value [2] was −10.0, the “Micturitions per day Δ Mean ± SD” value [2] was −3.5 ± 7.8 and the “Pruritus Δ Mean ± SD” value [2] was −1.0 ± 2.2. The “QLQ-C30 Functional Δ Mean ± SD” value [2] was 8.6 ± 4.8, the “QLQ-C30 Global Health Δ Mean ± SD” value [2] was 6.3 ± 12.5 and the “QLQ-C30 Symptom Δ Mean ± SD” value [2] was −9.5 ± 6.2. For the same compound, the “Stools per day Δ Mean ± SD” value [2] was −1.5 ± 2.1, the overall clinical response (W12, ITT) was 14/25 and the “tryptase level, mean reduction” value (W12, PP patients with elevated tryptase (>15 ng/mL) at baseline (N=5)) was 23%. For the same compound, the micturition frequency improvement (W12, PP population) was 39%±14, the stool frequency improvement (W12, PP population) was 44%±63 and the “AFIRMM global score improvement” value (W12, evaluable patients (N=20)) was 40%±27. The micturition frequency improvement [3] was 23%±30, the stool frequency improvement [3] was 29%±58 and the “bone marrow mast cell infiltration” value (W12, one patient of 15 evaluable, 7% at baseline) was 1%. For the same compound, the “first response events: Cumulative Frequency” value (at 1.5 mg/kg/day) was 0%, the “first response events: Total events” value (at 1.5 mg/kg/day) was 0 and the “first response events: AFIRMM score” value (at 3.0 mg/kg/day) was 4. The “first response events: Cumulative Frequency” value (at 3.0 mg/kg/day) was 46%, the “first response events: Flush” value (at 3.0 mg/kg/day) was 9 and the “first response events: Hamilton” value (at 3.0 mg/kg/day) was 4. For the same compound, the “first response events: OPA score” value (at 3.0 mg/kg/day) was 2, the “first response events: Pruritus” value (at 3.0 mg/kg/day) was 5 and the “first response events: QLQ30 Functional” value (at 3.0 mg/kg/day) was 3. The “first response events: QLQ30 Global” value (at 3.0 mg/kg/day) was 2, the “first response events: QLQ30 Symptom” value (at 3.0 mg/kg/day) was 2 and the “first response events: Stool” value (at 3.0 mg/kg/day) was 5. For the same compound, the “first response events: Total events” value (at 3.0 mg/kg/day) was 36, the “first response events: AFIRMM score” value (at 4.5 mg/kg/day) was 1 and the “first response events: Cumulative Frequency” value (at 4.5 mg/kg/day) was 61%. For the same compound, the “first response events: Flush” value (at 4.5 mg/kg/day) was 3, the “first response events: Hamilton” value (at 4.5 mg/kg/day) was 2 and the “first response events: Pruritus” value (at 4.5 mg/kg/day) was 2. For the same compound, the “first response events: QLQ30 Functional” value (at 4.5 mg/kg/day) was 1, the “first response events: QLQ30 Global” value (at 4.5 mg/kg/day) was 2 and the “first response events: QLQ30 Symptom” value (at 4.5 mg/kg/day) was 1. For the same compound, the “first response events: Total events” value (at 4.5 mg/kg/day) was 12.
